From article doi:10.1101/416081v1 (biorxiv, 2018) come the findings set out here.

This test has as its target T1, reTAPON1-LIKE (Trichoderma atroviride, UniProt A0A4D6GQM1).
T1 construct: 30-aa signal peptide removed (438-residue ORF, 1317 bp), N-terminal GST tag kept (pGEX-4T-1), E. coli Origami B (DE3), about 71 kDa fusion
Type of test: biochemical. The conditions noted are these: 25 °C.
With `CCOP(=O)(OCC)Oc1nc(Cl)c(Cl)cc1Cl` [Chlorpyrifos-oxon], the Km came to 320 ± 50 µM.

Turning to `COP(=O)(OC)OC=C(Cl)Cl` [Dichlorvos, 2,2-dichlorovinyl dimethyl phosphate], the Km was 230 ± 20 µM.

Regarding `CCOC(=O)CC(SP(=O)(OC)OC)C(=O)OCC` (centres unmarked) [Malaoxon], the Km was 720 ± 10 µM.

As to `COC(=O)C=C(C)OP(=O)(OC)OC` [Mevinphos], the Km was 440 ± 40 µM.

Regarding `CNC(=O)CSP(=O)(OC)OC` [Omethoate], the Km is 790 ± 120 µM.

One may read the Km as the substrate concentration at which the rate is half of its maximum.
